From patent publication US9447075B2, “Pyridazine derivatives as EAAT2 activators” (The Brigham and Women's Hospital, Inc., priority 2011, dated 2016)
Where “and” joins values, the source holds several entries; their conditions need not be identical. Equal values may be shown once.

System: EAAT2
Assay: EAAT2 protein levels in PA-EAAT2 cells by Western blot
Format: cell-based, human
Settings: for Fold increase for EAAT2, 4 h / Fold increase for EAAT2, 24 h: compound 10 μM, PA-EAAT2 cells, relative to DMSO controls, na = not active; for Fold increase for EAAT2, 4 h: 4 h incubation; for Fold increase for EAAT2, 24 h: 24 h incubation; for SAR comparison of activity on EAAT2 protein levels, in words: relative to parent/comparator analogue, Tables 1-4; for Improvement of potency/activity compared to 1: compared to compound 1, Table 4
Procedure: All of the derivates of 1 were initially evaluated in PA-EAAT2 cells^3 (a primary astrocyte line stably expressing EAAT2 mRNAs) following compound (10 μM) incubation for 4 and 24 h before harvesting and measuring EAAT2 levels by Western blot analysis. The fold increases in EAAT2 protein levels relative to DMSO controls are reported (Tables 1-4).
Characterization and efficacy studies of a compound, Compound 212320 (FIG. 6A) is shown. […] In the absence of serum, PA-EAAT2 cells express low amounts of EAAT2 protein, although the recombinant EAAT2 mRNA are expressed (translational silencing); however, EAAT2 protein levels are increased when an activator is added to the culture (translational activation). This cell line was used for high-throughput screening to identify EAAT2 translational activators. To prioritize candidate compounds, we initially evaluated activation of EAAT2 protein in PA-EAAT2 cells. Promising compounds were further evaluated in primary dissociated neuron and astrocyte mixed cultures and then in mice. FIG. 6 presents the characterization of Compound 212320 in PA-EAAT2 cells. Compound 212320 increased EAAT2 protein levels in a dose—(FIG. 6B) and time—(FIG. 6C) dependent manner. Importantly, the induction occurred in a short amount of time (within 1-2 hr) and was sustained even up to 72 hr (data not show). Additionally, induction occurred at low nanomolar concentrations. […] (FIG. 6D).

## Fc1ccc(Sc2ccc(-c3ccccn3)nn2)c(Cl)c1 [Compound 7-34]
  Fold increase for EAAT2, 4 h: 1.3 ± 0.1 fold
  Fold increase for EAAT2, 24 h: 2.5 ± 0.7 fold

## Cc1cccc(C)c1CSc1ccc(-c2ccccn2)nn1 [Compound 7-13]
  Fold increase for EAAT2, 24 h: 6.5 ± 1.0 fold
  SAR comparison of activity on EAAT2 protein levels, in words: increased potency

## Cc1ccccc1CSc1ccc(-c2cccnc2)nn1 [Compound 7-5]
  Fold increase for EAAT2, 4 h: 1.5 ± 0.4 fold
  SAR comparison of activity on EAAT2 protein levels, in words: reduced activity

## O=S(=O)(Cc1c(F)cccc1Cl)c1ccc(-c2ccccn2)nn1 [Compound 9-1]
  Fold increase for EAAT2, 4 h: 1.4 ± 0.3 fold
  Fold increase for EAAT2, 24 h: 2.8 ± 0.4 fold
  SAR comparison of activity on EAAT2 protein levels, in words: detrimental

## CCSc1ccc(-c2ccccn2)nn1 [Compound 7-36]
  Fold increase for EAAT2, 4 h: 1.6 ± 0.7 fold
  Fold increase for EAAT2, 24 h: 1.9 ± 0.9 fold
  SAR comparison of activity on EAAT2 protein levels, in words: essentially the same potency as 1

## Fc1cccc(Cl)c1CSc1ccc(-c2cccnc2)nn1 [Compound 7-1]
  Fold increase for EAAT2, 24 h: 2.3 ± 0.8 fold
  SAR comparison of activity on EAAT2 protein levels, in words: reduced activity

## Fc1ccc(CSc2ccc(-c3ccccn3)nn2)cc1 [Compound 7-24]
  Fold increase for EAAT2, 4 h: 2.5 ± 0.6 fold
  Fold increase for EAAT2, 24 h: 2.6 ± 0.3 fold
  SAR comparison of activity on EAAT2 protein levels, in words: did not result in significant improvement

## Fc1ccc(CSc2ccc(-c3ccccn3)nn2)c(Cl)c1 [Compound 7-35]
  Fold increase for EAAT2, 4 h: 1.6 ± 0.6 fold
  Fold increase for EAAT2, 24 h: 1.7 ± 0.4 fold

## Cc1ccccc1CCSc1ccc(-c2ccccn2)nn1 [Compound 7-32]
  Fold increase for EAAT2, 4 h: 1.2 ± 0.3 fold
  Fold increase for EAAT2, 24 h: 2.8 ± 0.4 fold
  SAR comparison of activity on EAAT2 protein levels, in words: exception

## c1ccc(-c2ccc(SC3CCCc4ccccc43)nn2)nc1 (racemic) [Compound 7-33]
  Improvement of potency/activity compared to 1: about 3 fold
  Fold increase for EAAT2, 24 h: 5.3 ± 1.1 fold

## CC(Sc1ccc(-c2ccccn2)nn1)c1c(F)cccc1Cl (racemic) [Compound 7-14]
  Improvement of potency/activity compared to 1: about 3 fold
  Fold increase for EAAT2, 4 h: 1.7 ± 0.9 fold
  Fold increase for EAAT2, 24 h: 5.5 ± 1.0 fold

## Clc1cccc(Cl)c1CSc1ccc(-c2ccccn2)nn1 [Compound 7-22]
  Improvement of potency/activity compared to 1: two-fold
  Fold increase for EAAT2, 4 h: 1.5 ± 0.8 fold
  Fold increase for EAAT2, 24 h: 3.9 ± 0.4 fold

## Cc1ccccc1CS(=O)(=O)c1ccc(-c2ccccn2)nn1 [Compound 9-2]
  Fold increase for EAAT2, 4 h: 2.3 ± 0.4 fold
  Fold increase for EAAT2, 24 h: 1.1 ± 0.2 fold
  SAR comparison of activity on EAAT2 protein levels, in words: detrimental

## Cc1ccc(CSc2ccc(-c3ccccn3)nn2)cc1 [Compound 7-10]
  Fold increase for EAAT2, 4 h: 2.1 ± 1.1 fold
  Fold increase for EAAT2, 24 h: 2.6 ± 0.4 fold

## Cc1ccccc1CSc1ccc(-c2ccccc2)nn1 [Compound 7-6]
  Fold increase for EAAT2, 4 h: 1.1 ± 0.1 fold
  Fold increase for EAAT2, 24 h: 2.0 ± 0.4 fold
  SAR comparison of activity on EAAT2 protein levels, in words: reduced activity

## O=S(=O)(Cc1ccccc1Cl)c1ccc(-c2ccccn2)nn1 [Compound 9-3]
  Fold increase for EAAT2, 4 h: 1.6 ± 0.3 fold
  SAR comparison of activity on EAAT2 protein levels, in words: detrimental

## c1ccc(CSc2ccc(-c3ccccn3)nn2)cc1 [Compound 7-12]
  Fold increase for EAAT2, 4 h: 1.3 ± 0.2 fold
  Fold increase for EAAT2, 24 h: 3.0 ± 0.4 fold and 3.0 ± 0.5 fold
  SAR comparison of activity on EAAT2 protein levels, in words: essentially the same potency as 1

## Fc1ccccc1CSc1ccc(-c2ccccn2)nn1 [Compound 7-23]
  Fold increase for EAAT2, 4 h: 2.2 ± 0.1 fold
  Fold increase for EAAT2, 24 h: 3.1 ± 0.2 fold
  SAR comparison of activity on EAAT2 protein levels, in words: improved activity

## Fc1cccc(Cl)c1CCOc1ccc(-c2ccccn2)nn1 [Compound 8-5]
  Fold increase for EAAT2, 4 h: 2.2 ± 0.4 fold
  Fold increase for EAAT2, 24 h: 3.1 ± 1.2 fold

## Clc1ccccc1CCSc1ccc(-c2ccccn2)nn1 [Compound 7-31]
  Fold increase for EAAT2, 4 h: 1.7 ± 0.2 fold
  Fold increase for EAAT2, 24 h: 4.8 ± 0.6 fold
  SAR comparison of activity on EAAT2 protein levels, in words: more potent

## Fc1cc(F)c(CSc2ccc(-c3ccccn3)nn2)c(F)c1 [Compound 7-26]
  Fold increase for EAAT2, 4 h: 1.6 ± 1.0 fold
  Fold increase for EAAT2, 24 h: 2.4 ± 0.6 fold
  SAR comparison of activity on EAAT2 protein levels, in words: did not result in significant improvement

## CC(C)OC(=O)c1ccc(-c2ccccn2)nn1 [Compound 27]
Compounds 23-27 assessed
  Activity (EAAT2 increase), in words: active

## Clc1cccc(CSc2ccc(-c3ccccn3)nn2)c1 [Compound 7-18]
  Improvement of potency/activity compared to 1: two-fold
  Fold increase for EAAT2, 4 h: 2.1 ± 0.3 fold
  Fold increase for EAAT2, 24 h: 4.1 ± 0.5 fold

## CC(Oc1ccc(-c2ccccn2)nn1)c1c(F)cccc1Cl (racemic) [Compound 8-4]
  Fold increase for EAAT2, 4 h: 1.6 ± 0.2 fold
  Fold increase for EAAT2, 24 h: 3.0 ± 0.7 fold

## Cc1cc(C)c(CSc2ccc(-c3ccccn3)nn2)c(C)c1 [Compound 7-30]
  Fold increase for EAAT2, 4 h: 1.7 ± 0.3 fold
  Fold increase for EAAT2, 24 h: 4.7 ± 0.5 fold
  SAR comparison of activity on EAAT2 protein levels, in words: increased potency

## Fc1cccc(Cl)c1CSc1ccc(-c2ccccn2)nn1 [Compound 1]
After 24 h exposure
  EAAT2 protein levels, dose dependence: dose-dependent increase
  Fold increase for EAAT2, 24 h: 2.0 ± 0.8 fold

## Clc1ccc(Cl)c(CSc2ccc(-c3ccccn3)nn2)c1 [Compound 7-20]
  Fold increase for EAAT2, 4 h: 1.4 ± 0.1 fold
  Fold increase for EAAT2, 24 h: 2.5 ± 0.4 fold
  SAR comparison of activity on EAAT2 protein levels, in words: equivalent to 1

## Cc1ccc(CSc2ccc(-c3ccccn3)nn2)c(C)c1 [Compound 7-17]
  Fold increase for EAAT2, 4 h: 1.9 ± 0.8 fold
  Fold increase for EAAT2, 24 h: 6.4 ± 1.0 fold
  SAR comparison of activity on EAAT2 protein levels, in words: increased potency

## Cc1ccc(CSc2ccc(-c3ccncc3)nn2)cc1 [Compound 7-11]
  Fold increase for EAAT2, 4 h: 1.3 ± 0.1 fold
  Fold increase for EAAT2, 24 h: 2.4 ± 0.6 fold
  SAR comparison of activity on EAAT2 protein levels, in words: reduced activity

## Cc1ccccc1CNC(=O)c1ccc(-c2ccccn2)nn1 [Compound 17-2]
  Fold increase for EAAT2, 24 h: 1.4 ± 0.2 fold
  SAR comparison of activity on EAAT2 protein levels, in words: not tolerated

## Sc1ccc(-c2ccccn2)nn1 [Compound 6-1]
  Fold increase for EAAT2, 24 h: 2.0 ± 0.8 fold
  SAR comparison of activity on EAAT2 protein levels, in words: essentially the same potency as 1

## Cc1cccc(CSc2ccc(-c3ccccn3)nn2)c1 [Compound 7-27]
  Fold increase for EAAT2, 4 h: 2.0 ± 0.2 fold
  Fold increase for EAAT2, 24 h: 2.8 ± 0.5 fold
  SAR comparison of activity on EAAT2 protein levels, in words: less potent

## Cc1ccccc1COc1ccc(-c2ccccn2)nn1 [Compound 8-1]
  Fold increase for EAAT2, 4 h: 2.0 ± 0.9 fold
  Fold increase for EAAT2, 24 h: 2.5 ± 0.5 fold

## c1ccc(CSc2ccc(-c3ccccn3)cc2)cc1 [Compound 19]
  Fold increase for EAAT2, 4 h: 1.2 ± 0.5 fold
  Fold increase for EAAT2, 24 h: 1.1 ± 0.4 fold

## Cc1ccc(Sc2ccc(-c3ccccn3)nn2)c(C)c1 [Compound 7-29]
  Fold increase for EAAT2, 4 h: 1.2 ± 0.3 fold
  Fold increase for EAAT2, 24 h: 2.2 ± 0.3 fold
  SAR comparison of activity on EAAT2 protein levels, in words: decreased potency

## Oc1ccc(-c2ccccn2)nn1 [Compound 5-1]
  Fold increase for EAAT2, 4 h: 1.5 ± 0.5 fold
  Fold increase for EAAT2, 24 h: 1.6 ± 1.0 fold

## Clc1ccccc1CSc1ccc(-c2ccccn2)nn1 [Compound 7-7]
  Improvement of potency/activity compared to 1: two-fold
  Fold increase for EAAT2, 4 h: 2.1 ± 1.4 fold
  Fold increase for EAAT2, 24 h: 4.0 ± 0.3 fold

## Clc1ccccc1CSc1ccc(-c2cccnc2)nn1 [Compound 7-8]
  Fold increase for EAAT2, 4 h: 1.2 ± 0.4 fold
  Fold increase for EAAT2, 24 h: 1.2 ± 0.3 fold
  SAR comparison of activity on EAAT2 protein levels, in words: reduced activity

## Cc1cccc(C)c1COc1ccc(-c2ccccn2)nn1 [Compound 8-3]
  Fold increase for EAAT2, 4 h: 2.1 ± 1.2 fold
  Fold increase for EAAT2, 24 h: 3.2 ± 1.4 fold
